Each structure is given as a SMILES string.

For the assay, the target named is T1, GPR158 (Homo sapiens, UniProt Q5T848).
T1 sequence (Q5T848 24-1215): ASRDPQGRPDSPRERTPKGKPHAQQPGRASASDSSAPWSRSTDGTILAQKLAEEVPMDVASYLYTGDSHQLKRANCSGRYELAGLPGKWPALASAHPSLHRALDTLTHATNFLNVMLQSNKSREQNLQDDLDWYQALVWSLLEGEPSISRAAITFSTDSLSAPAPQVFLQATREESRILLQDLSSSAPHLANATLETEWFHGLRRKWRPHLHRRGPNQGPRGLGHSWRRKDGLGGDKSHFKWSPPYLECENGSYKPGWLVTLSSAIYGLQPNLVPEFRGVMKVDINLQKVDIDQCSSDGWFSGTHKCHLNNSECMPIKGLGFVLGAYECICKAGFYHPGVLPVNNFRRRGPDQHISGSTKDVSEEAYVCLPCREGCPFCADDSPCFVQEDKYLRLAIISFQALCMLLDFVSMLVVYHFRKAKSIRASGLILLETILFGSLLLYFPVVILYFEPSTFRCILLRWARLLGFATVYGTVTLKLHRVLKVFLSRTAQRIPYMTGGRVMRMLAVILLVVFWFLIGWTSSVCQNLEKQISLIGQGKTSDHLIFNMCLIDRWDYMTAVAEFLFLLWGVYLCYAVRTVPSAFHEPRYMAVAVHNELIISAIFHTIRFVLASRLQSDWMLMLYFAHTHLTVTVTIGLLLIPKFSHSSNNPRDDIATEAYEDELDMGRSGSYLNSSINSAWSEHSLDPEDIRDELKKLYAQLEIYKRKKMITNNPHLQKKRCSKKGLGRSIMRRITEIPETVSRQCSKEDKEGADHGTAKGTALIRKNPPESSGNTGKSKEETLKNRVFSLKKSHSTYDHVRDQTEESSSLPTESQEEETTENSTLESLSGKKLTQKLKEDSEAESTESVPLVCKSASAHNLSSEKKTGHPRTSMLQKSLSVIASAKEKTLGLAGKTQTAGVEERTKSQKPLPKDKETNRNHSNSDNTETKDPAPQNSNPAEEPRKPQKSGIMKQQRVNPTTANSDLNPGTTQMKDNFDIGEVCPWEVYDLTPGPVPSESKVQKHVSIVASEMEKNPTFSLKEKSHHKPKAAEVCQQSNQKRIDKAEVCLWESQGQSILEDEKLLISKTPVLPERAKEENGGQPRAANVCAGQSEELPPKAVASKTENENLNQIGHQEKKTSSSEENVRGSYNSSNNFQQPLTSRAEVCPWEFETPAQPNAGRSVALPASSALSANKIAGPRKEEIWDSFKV
Briefly: Radioligand competition binding assay vs ^3H-glycine. Also on record: expressed in transfected cells; host or cells: HEK293FT. The following applies: for IC50: membranes from HEK293 cells expressing GPR158, 4 experiments, mean±s.e.m., read-out: IC50 (displacement of ^3H-glycine). On the procedure: FIG. 8. Radioligand competition binding assay comparing binding of glycine and taurine to GPR158 Membranes from HEK293 cells expressing GPR158 were first incubated with ^3H-Glycine setting binding to 100% and then exposed to increasing concentrations of cold glycine (open circles) or cold taurine (circles with angled-line fill). Data shown are from 4 independent experiments, mean±s.e.m.
Next, the inventors performed radioligand binding assays examining binding of [^3H]-labeled glycine to HEK293 cells expressing GPR158 (FIG. 7A). […] The inventors have then isolated cellular membranes and conducted classical radioligand titration experiments (FIG. 9D). The inventors detected saturable [^3H]-glycine binding to membranes containing GPR158 is substantial excess over linear non-specific binding to membranes devoid of GPR158 (FIG. 9E). Scatchard analysis (FIG. 9F) estimated Kd of GPR158 for glycine to be ~3 μM. The inventors further performed binding competition experiments directly comparing the ability of glycine and taurine to displace [^3H]-labeled glycine bound to GPR158 (FIG. 8).
The functional data shown represent the average±SEM of 3-9 individual experiments each performed in triplicate or indicated in each figure and expressed as means±standard error means (s.e.m). For cAMP assays, cells transfected with empty vector were used as control and one-way ANOVA test was performed. For the GAP assay, cells with the same transfection conditions were compared on their treatment and two-way ANOVA test was performed. The non-linear regression curve was used to fit on the dose response curve giving the IC50 value. For the flow cytometry and radioligand binding assays cells transfected with empty vector were used as control and two-way ANOVA test was performed. For the radioligand competition assay, dissociation-One phase exponential decay was used to fit on data and give the Ki value. For the ITC dose response curve, the non-linear regression curve was used to fit on the curve. […] For the electrophysiology experiments changes was assessed in nonparametric t-test; Wilcoxon test. […]

On to `NCC(=O)O` [glycine], for which the IC50 is ~3 µM.
Turning to `NCCS(=O)(=O)O` [taurine, 2-aminoethanesulfonic acid], the half-maximal inhibitory concentration (IC50) was ~6 µM. The “affinity of taurine relative to glycine” value (competition binding IC50 comparison) is listed as “two fold lower affinity”.

One may read the IC50 as the concentration that inhibits the measured activity by half.

Values taken from patent publication US20260376293A1, “METHODS FOR STUDYING GPR158 PHARMACOLOGY AND IDENTIFICATION OF ITS LIGANDS” (UNIVERSITY OF FLORIDA RESEARCH FOUNDATION, INCORPORATED, priority 2022, published 2026).
